Results as given in patent US9018214B2, “Bicyclic heterocycle compounds and their uses in therapy” (Astex Therapeutics Limited, priority 2011, dated 2015).
Where a name gives a salt, the structure may show the parent alone. Read-outs that look alike come from different tables or passages of the source.

What was measured:
[1] = target: BIR3 domain of human XIAP (residues 252-350) (Homo sapiens (Human), UniProt P98170); assay: XIAP in vitro competitive displacement binding assay (fluorescence polarization); conditions: for IC50: read-out: IC50 or PI Xiap: IC50
[2] = target: BIR3 domain of human cIAP-1 (residues 267-363) (Homo sapiens (Human), UniProt Q13490); assay: cIAP-1 in vitro competitive displacement binding assay (fluorescence polarization; Probe A AVPIK(5&6FAM)-amide or Probe B AbuRPFK(5&6FAM)-amide)
[3] = tested on: EVSA-T (human breast carcinoma); assay: Anti-proliferative activity, Alamar Blue assay, EVSA-T; type: cell-based; conditions: for EC50: Homo sapiens
[4] = read-out: IC50 or PI cIAP1: IC50
[5] = EVSA-T, 72 h, read-out: EVSA-T prolif (EC50)
[6] = 1 h, @ 0.04 μM, read-out: IC50 or PI Xiap: PI
[7] = 3 h, Probe B, @ 0.012 μM, read-out: IC50 or PI cIAP1: PI
[8] = EVSA-T, 72 hours, Alamar Blue, read-out: EVSA-T prolif (EC50)
[9] = Probe B AbuRPFK(5&6FAM)-amide, read-out: IC50 or PI cIAP1: IC50
[10] = 3 h, read-out: IC50 or PI cIAP1: PI
[11] = 3 h, Probe B, read-out: IC50 or PI cIAP1: PI

Row | SMILES | IC50 [1] [nM] | EC50 [3, 8] [nM] | IC50 [2, 9] [nM] | EC50 [3, 5] [nM] | also measured
1 | C[C@@H]1CN(CC(=O)N2CCc3cc(=O)n(Cc4ccccc4)cc32)CCN1.Cl [Example 39, 6-Benzyl-1-[2-((R)-3-methyl-piperazin-1-yl)-acetyl]-1,2,3,6-tetrahydro-pyrrolo[2,3-c]pyridin-5-one hydrochloride salt] |  |  |  |  | inhibition at 3 µM ([1]; 1 h, @ 3 μM, read-out: IC50 or PI Xiap: PI): 55%; inhibition at 1 µM ([2]; 3 h, Probe A, @ 1 μM, read-out: IC50 or PI cIAP1: PI): 46%; EVSA-T prolif: % inhibition ([3]; concentration not printed (cell truncated)): −15% at
2 | COC[C@H]1CN[C@H](C)CN1CC(=O)N1CC(C)(C)c2cnc(-c3ccc(C)s3)cc21 [Example 148, 1-[3,3-Dimethyl-6-(5-methylthiophen-2-yl)-1H,2H,3H-pyrrolo[3,2-c]pyridin-1-yl]-2-[(2R,5R)-2-(methoxymethyl)-5-methylpiperazin-1-yl]ethan-1-one dihydrochloride] | 360 |  |  | 2000 | IC50 [2, 4]: 45 nM
3 | COC[C@H]1CN[C@H](C)CN1CC(=O)N1CC(C)(C)c2cnc(-c3ccoc3)cc21 [Example 145, 1-[6-(Furan-3-yl)-3,3-dimethyl-1H,2H,3H-pyrrolo[3,2-c]pyridin-1-yl]-2-[(2R,5R)-2-(methoxymethyl)-5-methylpiperazin-1-yl]ethan-1-one dihydrochloride] | 1000 |  |  | 9800 | IC50 [2, 4]: 180 nM
4 | COC[C@H]1CN[C@H](C)CN1CC(=O)N1CC2(CN(C(C)=O)C2)c2ccc(Cl)cc21 [Example 71, 1-{1-Acetyl-6′-chloro-1′,2′-dihydrospiro[azetidine-3,3′-indole]-1′-yl}-2-[(2R,5R)-2-(methoxymethyl)-5-methylpiperazin-1-yl]ethan-1-one hydrochloride salt] | 490 | 7700 | 540 |  | EC50 ([3]; EVSA-T cell line, 72 hours, Alamar Blue, read-out: EC50, inhibition of cell growth): < 10000 nM
5 | CCS(=O)(=O)c1ccc2c(c1)N(C(=O)CN1C[C@@H](C)NC[C@@H]1COC)CC2(C)C [Example 59, 1-(6-Ethane-sulfonyl-3,3-dimethyl-2,3-dihydro-indol-1-yl)-2-((2R,5R)-2-methoxymethyl-5-methyl-piperazin-1-yl)-ethanone dihydrochloride salt] | 310 |  |  | 9700 | IC50 [2, 4]: 500 nM
6 | C[C@@H]1CN(CC(=O)N2CC(C)(C)c3cnc(C(F)(F)c4ccccc4)cc32)[C@@H](CN2CCCC2=O)CN1 [Example 173, 1-{[(2R,5R)-1-(2-{6-[Difluoro(phenyl)methyl]-3,3-dimethyl-1H,2H,3H-pyrrolo[3,2-c]pyridin-1-yl}-2-oxoethyl)-5-methylpiperazin-2-yl]methyl}pyrrolidin-2-one dihydrochloride] |  | 36 |  |  | inhibition at 0.04 µM ([1]; 1 h, read-out: IC50 or PI Xiap: PI): 73%; inhibition at […] [2, 10]: 80%
7 | C[C@@H]1CN(CC(=O)N2CC(C)(C)c3ncc(C(F)(F)c4ccccc4)cc32)[C@@H](CN2CC[C@@H](F)C2)CN1 [Example 221, 1-{6-[Difluoro(phenyl)methyl]-3,3-dimethyl-1H,2H,3H-pyrrolo[3,2-b]pyridin-1-yl}-2-[(2R,5R)-2-{[(3R)-3-fluoropyrrolidin-1-yl]methyl}-5-methylpiperazin-1-yl]ethan-1-one dihydrochloride] | 73 |  |  | 54 | inhibition at […] [2, 10]: 78%
8 | C[C@@H]1CN(CC(=O)N2C[C@@](C)(c3ccccc3)c3ccc(C#N)cc32)[C@@H](C(=O)N2CCOCC2)CN1 [Example 152, (3S)-3-Methyl-1-{2-[(2R,5R)-5-methyl-2-[(morpholin-4-yl)carbonyl]piperazin-1-yl]acetyl}-3-phenyl-2,3-dihydro-1H-indole-6-carbonitrile] | 65 | 3700 | 110 |  | 
9 | C[C@@H]1CN(CC(=O)N2CC(C)(C)c3cnc(Cc4ccccc4)cc32)[C@@H](C(=O)N2CCOCC2)CN1 [Example 101, 1-{6-Benzyl-3,3-dimethyl-1H,2H,3H-pyrrolo[3,2-c]pyridin-1-yl}-2-[(2R,5R)-5-methyl-2-[(morpholin-4-yl)carbonyl]piperazin-1-yl]ethan-1-one, hydrochloride salt] | 72 | 140 |  |  | inhibition at 0.01 µM [2, 11]: 62%
10 | C[C@@H]1CN(CC(=O)N2CC(C)(C)c3cnc(Cc4ccc(F)cc4F)cc32)[C@@H](CN2CCC(=O)C2)CN1 [Example 207, 1-{[(2R,5R)-1-(2-{6-[(2,4-Difluorophenyl)methyl]-3,3-dimethyl-1H,2H,3H-pyrrolo[3,2-c]pyridin-1-yl}-2-oxoethyl)-5-methylpiperazin-2-yl]methyl}pyrrolidin-3-one dihydrochloride] | 57 |  |  | 4 | inhibition at […] [2, 10]: 98%
11 | CCCC(F)(F)c1cnc2c(c1)N(C(=O)CN1C[C@@H](C)NC[C@@H]1CN1C[C@@H](C)O[C@@H](C)C1)CC2(C)C [Example 246, 1-[6-(1,1-Difluorobutyl)-3,3-dimethyl-1H,2H,3H-pyrrolo[3,2-b]pyridin-1-yl]-2-[(2R,5R)-2-{[(2R,6S)-2,6-dimethylmorpholin-4-yl]methyl}-5-methylpiperazin-1-yl]ethan-1-one dihydrochloride] | 43 |  |  | 31 | inhibition at […] [2, 10]: 76%

More lines, main results first:

Row | IC50 [1] [nM] | EC50 [3, 8] [nM] | IC50 [2, 9] [nM] | SMILES | EC50 [3, 5] [nM] | also measured
12 |  | 38 |  | CC(C)CC(F)(F)c1cc2c(cn1)C(C)(C)CN2C(=O)CN1C[C@@H](C)NC[C@@H]1CN1CCOCC1 [Example 229, 1-[6-(1,1-Difluoro-3-methylbutyl)-3,3-dimethyl-1H,2H,3H-pyrrolo[3,2-c]pyridin-1-yl]-2-[(2R,5R)-5-methyl-2-(morpholin-4-ylmethyl)piperazin-1-yl]ethan-1-one hydrochloride] |  | inhibition at 0.04 µM [1, 6]: 53%; inhibition at […] [2, 7]: 73%
13 |  | 880 | 23 | CCC(F)(F)c1cc2c(cn1)C(C)(C)CN2C(=O)CN1C[C@@H](C)NC[C@@H]1CN1CCCC1=O [Example 198, 1-{[(2R,5R)-1-{2-[6-(1,1-Difluoropropyl)-3,3-dimethyl-1H,2H,3H-pyrrolo[3,2-c]pyridin-1-yl]-2-oxoethyl}-5-methylpiperazin-2-yl]methyl}pyrrolidin-2-one] |  | inhibition at 0.04 µM [1, 6]: 69%; IC50 [2]: < 1000 nM
14 | 58 | 8.8 |  | C[C@@H]1CN(CC(=O)N2CC(C)(C)c3cnc(Cc4ccc(F)cc4F)cc32)[C@@H](CN2CCCCC2=O)CN1 [Example 192, 1-{[(2R,5R)-1-(2-{6-[(2,4-Difluorophenyl)methyl]-3,3-dimethyl-1H,2H,3H-pyrrolo[3,2-c]pyridin-1-yl}-2-oxoethyl)-5-methylpiperazin-2-yl]methyl}piperidin-2-one hydrochloride] |  | inhibition at […] [2, 7]: 95%
15 | 65 | 95 |  | C[C@@H]1CN(CC(=O)N2CC(C)(C)c3cnc(Cc4ccccc4)cc32)[C@@H](Cn2cc(F)cn2)CN1 [Example 157, 1-{6-Benzyl-3,3-dimethyl-1H,2H,3H-pyrrolo[3,2-c]pyridin-1-yl}-2-[(2R,5R)-2-[(4-fluoro-1H-pyrazol-1-yl)methyl]-5-methylpiperazin-1-yl]ethan-1-one hydrochloride] |  | inhibition at […] [2, 7]: 78%
16 | 160 | 450 | 13 | COC[C@H]1CN[C@H](C)CN1CC(=O)N1CC(C)(c2cccnc2)c2ccc(Cc3ccccc3)cc21 (stereo partly drawn) [Example 163, 1-[6-Benzyl-3-methyl-3-(pyridin-3-yl)-2,3-dihydro-1H-indol-1-yl]-2-[(2R,5R)-2-(methoxymethyl)-5-methylpiperazin-1-yl]ethan-1-one hydrochloride] |  | IC50 [2]: < 1000 nM
17 | 760 | 2500 | 190 | COC[C@H]1CN[C@H](C)CN1CC(=O)N1C[C@](C)(c2cc(C)no2)c2ccc(Cc3ccccc3)cc21 [Example 174, 1-[(3R)-6-Benzyl-3-methyl-3-(3-methyl-1,2-oxazol-5-yl)-2,3-dihydro-1H-indol-1-yl]-2-[(2R,5R)-2-(methoxymethyl)-5-methylpiperazin-1-yl]ethan-1-one hydrochloride] |  | IC50 [2]: < 1000 nM
18 | 46 | 630 | 22 | CC(C)C(F)(F)c1cc2c(cn1)C(C)(C)CN2C(=O)CN1C[C@@H](C)NC[C@@H]1CN1CCCC1=O [Example 211, 1-{[(2R,5R)-1-{2-[6-(1,1-Difluoro-2-methylpropyl)-3,3-dimethyl-1H,2H,3H-pyrrolo[3,2-c]pyridin-1-yl]-2-oxoethyl}-5-methylpiperazin-2-yl]methyl}pyrrolidin-2-one hydrochloride] |  | IC50 [2]: < 1000 nM
19 | 67 | 95 |  | C[C@@H]1CN(CC(=O)N2CC(C)(C)c3cnc(Cc4ccccc4)cc32)[C@@H](Cn2cccn2)CN1 [Example 112, 1-(6-Benzyl-3,3-dimethyl-2,3-dihydro-pyrrolo[3,2-c]pyridin-1-yl)-2-((2R,5R)-5-methyl-2-pyrazol-1-ylmethyl-piperazin-1-yl)-ethanone] |  | inhibition at 0.01 µM [2, 11]: 69%
20 |  | 48 |  | CC(C)CC(F)(F)c1cc2c(cn1)C(C)(C)CN2C(=O)CN1C[C@@H](C)NC[C@@H]1CN1CCCC1=O [Example 225, 1-{[(2R,5R)-1-{2-[6-(1,1-Difluoro-3-methylbutyl)-3,3-dimethyl-1H,2H,3H-pyrrolo[3,2-c]pyridin-1-yl]-2-oxoethyl}-5-methylpiperazin-2-yl]methyl}pyrrolidin-2-one hydrochloride] |  | inhibition at 0.04 µM [1, 6]: 62%; inhibition at […] [2, 7]: 72%
